According to patent US20120295907A1, “INSECTICIDAL COMPOUNDS” (SYNGENTA CROP PROTECTION, LLC, priority 2009, published 2012):

Tests used:
Type in all cases: in vivo
Spodoptera littoralis = Spodoptera littoralis (Egyptian Cotton Leafworm) cotton leaf disc spray test; conditions: foliar, 72 h, 200 ppm spray on cotton leaf discs, L1 larvae, mortality, feeding behavior, growth regulation 3 DAT
Heliothis virescens = Heliothis virescens (Tobacco Budworm) egg test on artificial diet; conditions: 96 h, 200 ppm (concentration in well 18 ppm), eggs 0-24 h old on artificial diet, 4 days, egg mortality, larval mortality, growth regulation
Plutella xylostella = Plutella xylostella (Diamond Back Moth) artificial diet MTP test; conditions: 144 h, 200 ppm (concentration in well 18 ppm), L2 larvae, 6 days, larval mortality, growth regulation
Diabrotica balteata = Diabrotica balteata (Corn Root Worm) artificial diet MTP test; conditions: 120 h, 200 ppm (concentration in well 18 ppm), L2 larvae, 5 days, larval mortality, growth regulation

| Compound | pest or weed control at 200 ppm (Spodoptera littoralis) [%] | pest or weed control at 200 ppm (Heliothis virescens) [%] | pest or weed control at 200 ppm (Plutella xylostella) [%] | pest or weed control at 200 ppm (Diabrotica balteata) [%] |
| --- | --- | --- | --- | --- |
| CCc1cc(C(F)(C(F)(F)F)C(F)(F)C(F)(F)F)cc(C)c1NC(=O)c1cccc(NC(=O)c2ccc(Cl)s2)c1OC (centres unmarked) [A21] | ≥ 80 | ≥ 80 | ≥ 80 | – |
| COc1c(NC(=O)c2cc(Cl)ccc2F)cccc1C(=O)Nc1c(Cl)cc(C(F)(C(F)(F)F)C(F)(F)C(F)(F)F)cc1Br (centres unmarked) [B10] | ≥ 80 | ≥ 80 | ≥ 80 | – |
| COc1c(NC(=O)c2ccco2)cccc1C(=O)Nc1c(Cl)cc(C(F)(C(F)(F)F)C(F)(F)C(F)(F)F)cc1Br (centres unmarked) [B12] | ≥ 80 | ≥ 80 | ≥ 80 | – |
| COc1c(NC(=O)c2ccccc2OC(F)(F)F)cccc1C(=O)Nc1c(Cl)cc(C(F)(C(F)(F)F)C(F)(F)C(F)(F)F)cc1Br (centres unmarked) [B16] | ≥ 80 | – | ≥ 80 | – |
| COc1ccccc1C(=O)Nc1cccc(C(=O)Nc2c(Cl)cc(C(F)(C(F)(F)F)C(F)(F)C(F)(F)F)cc2Br)c1OC (centres unmarked) [B17] | ≥ 80 | ≥ 80 | – | – |
| COc1c(NC(=O)c2cc(C(F)(F)F)ccc2F)cccc1C(=O)Nc1c(Cl)cc(C(F)(C(F)(F)F)C(F)(F)C(F)(F)F)cc1Br (centres unmarked) [B24] | ≥ 80 | – | – | – |
| COc1c(NC(=O)c2ccc(-n3cccc3)cc2)cccc1C(=O)Nc1c(Cl)cc(C(F)(C(F)(F)F)C(F)(F)C(F)(F)F)cc1Br (centres unmarked) [B30] | ≥ 80 | ≥ 80 | – | ≥ 80 |
| COc1c(NC(=O)c2ccc(-c3csnn3)cc2)cccc1C(=O)Nc1c(Cl)cc(C(F)(C(F)(F)F)C(F)(F)C(F)(F)F)cc1Br (centres unmarked) [B31] | ≥ 80 | ≥ 80 | ≥ 80 | – |
| COc1c(NC(=O)c2csnn2)cccc1C(=O)Nc1c(Cl)cc(C(F)(C(F)(F)F)C(F)(F)C(F)(F)F)cc1Br (centres unmarked) [B39] | ≥ 80 | ≥ 80 | ≥ 80 | – |
| COc1c(NC(=O)c2ccc(-c3ccccn3)s2)cccc1C(=O)Nc1c(Cl)cc(C(F)(C(F)(F)F)C(F)(F)C(F)(F)F)cc1Br (centres unmarked) [B48] | ≥ 80 | ≥ 80 | ≥ 80 | – |
| COc1c(NC(=O)c2sccc2Br)cccc1C(=O)Nc1c(Cl)cc(C(F)(C(F)(F)F)C(F)(F)C(F)(F)F)cc1Br (centres unmarked) [B57] | – | – | ≥ 80 | – |
| COc1c(NC(=O)c2cc(Cl)cc(I)c2)cccc1C(=O)Nc1c(Cl)cc(C(F)(C(F)(F)F)C(F)(F)C(F)(F)F)cc1Br (centres unmarked) [B68] | ≥ 80 | ≥ 80 | – | – |
| COc1c(NC(=O)c2cc(Cl)cc(C(F)(F)F)c2)cccc1C(=O)Nc1c(Cl)cc(C(F)(C(F)(F)F)C(F)(F)C(F)(F)F)cc1Br (centres unmarked) [B70] | ≥ 80 | ≥ 80 | – | – |
| COc1c(NC(=O)c2ncccn2)cccc1C(=O)Nc1c(Cl)cc(C(F)(C(F)(F)F)C(F)(F)C(F)(F)F)cc1Br (centres unmarked) [B71] | ≥ 80 | – | ≥ 80 | – |
| COc1c(NC(=O)c2ccc(F)c([N+](=O)[O-])c2)cccc1C(=O)Nc1c(Cl)cc(C(F)(C(F)(F)F)C(F)(F)C(F)(F)F)cc1Br (centres unmarked) [B77] | ≥ 80 | ≥ 80 | ≥ 80 | – |
| COc1c(NC(=O)c2sccc2C)cccc1C(=O)Nc1c(Cl)cc(C(F)(C(F)(F)F)C(F)(F)C(F)(F)F)cc1Br (centres unmarked) [B88] | ≥ 80 | ≥ 80 | ≥ 80 | – |
| COc1c(NC(=O)c2ocnc2C)cccc1C(=O)Nc1c(Cl)cc(C(F)(C(F)(F)F)C(F)(F)C(F)(F)F)cc1Br (centres unmarked) [B94] | ≥ 80 | ≥ 80 | ≥ 80 | – |
| COCc1nc(C)c(C(=O)Nc2cccc(C(=O)Nc3c(Cl)cc(C(F)(C(F)(F)F)C(F)(F)C(F)(F)F)cc3Br)c2OC)s1 (centres unmarked) [B95] | ≥ 80 | ≥ 80 | ≥ 80 | – |
| COc1c(NC(=O)c2cc([N+](=O)[O-])c(Cl)cc2F)cccc1C(=O)Nc1c(Cl)cc(C(F)(C(F)(F)F)C(F)(F)C(F)(F)F)cc1Br (centres unmarked) [B102] | ≥ 80 | ≥ 80 | ≥ 80 | – |
| COc1c(NC(=O)c2sc(Cl)nc2C)cccc1C(=O)Nc1c(Cl)cc(C(F)(C(F)(F)F)C(F)(F)C(F)(F)F)cc1Br (centres unmarked) [B105] | ≥ 80 | – | ≥ 80 | – |
| COc1c(NC(=O)c2ccc(S(C)(=O)=O)c(OC)c2Cl)cccc1C(=O)Nc1c(Cl)cc(C(F)(C(F)(F)F)C(F)(F)C(F)(F)F)cc1Br (centres unmarked) [B114] | ≥ 80 | ≥ 80 | ≥ 80 | – |
| COc1c(NC(=O)c2ncc(C(F)(F)F)cc2Cl)cccc1C(=O)Nc1c(Cl)cc(C(F)(C(F)(F)F)C(F)(F)C(F)(F)F)cc1Br (centres unmarked) [B141] | ≥ 80 | ≥ 80 | ≥ 80 | – |
